Measured values reported in paper PMC11676204.
Like-named read-outs stand apart in the source and are kept apart here.

How the values were obtained:
[1] = test system: methyl predenisolone-induced hypertensive rats; assay: Antihypertensive activity, non-invasive tail-cuff method; type: in vivo, rat; parameters: Systolic BP / Diastolic BP: unit not given here; conditions: for Diastolic BP / Heart Rate / MABP / Systolic BP: methyl predenisolone 20 mg/kg/week rats, n = 4, mean ± S.E.M.
Description: After recording the initial BP of rats, the animals were divided into seven groups of four animals each. One group was chosen as the control group. The remaining groups were given a subcutaneous injection of methyl-predenisolone acetate (20 mg/kg/week) for one week, as described by Ekerbicer, N et al.. […] In total, 28 animals were evenly divided into 7 groups of 4 animals each to attain maximum balance of subjects across experimental conditions. […] Animals in group II (hypertensive control) were injected methylprednisolone acetate (20 mg/kg/week) intraperitoneally for hypertension induction, creating a baseline model of plateau hypertension. Animals in Group III were administered with 20 mg/kg/week intraperitoneal injection of methylprednisolone treated with captopril at an oral dosage of 5 mg/kg/day. For Group IV, the basal dosage of methylprednisolone was provided along with a higher dosage of captopril (10 mg/kg/day by oral route). […] The inclusion of multiple treatment groups with varying doses provided insights into the relative efficacy and dose-response relationship of the interventions. Randomization was done by block randomization, ensuring without bias these allocations of animals into groups. Before intervention, baseline characteristics such as weight, age, or sex of animals were determined, and t-test or ANOVA was used to affirm that no significant difference between groups existed. The SYRCLE’s Risk of Bias tool analyzed potential biases across various domains like selection, performance, and detection bias; each domain was rated according to low, high, or unclear risk.
The CODA Non-Invasive Blood Pressure Recorder (Kent Scientific Corporation, Torrington, CT, USA) was used to measure mean arterial blood pressure in conscious rats using the tail-cuff method. With the rat’s tail protruding, the restrainer was inserted in the BP instrument. […] The tail was gently pressed against a transducer membrane that was linked to the digital BP display panel. After that, the device was turned on and stabilized until a consistent pulse rate was seen. […] In this investigation, albino rats (body weight 150–200 g) were employed. Rats were divided into four groups, each with four individuals. […] After 1 h, the mean arterial blood pressure was measured.
Statistical analysis was carried out by one-way analysis of variance followed by Dunnet’s multiple comparison test using GraphPad InStat 3 (Graph Pad Software Inc., San Diego, CA, USA). All values were expressed as mean ± standard error of the mean (SEM). All groups were compared with hypertensive control animals. p-value of <0.01 was statistically significant.

[2] = Pharmacokinetics after oral administration (plasma, UV spectrophotometry at 340 nm); type: in vivo; conditions: rat; for Cmax / MRT / AUC(0-t): plasma; for AUC(0-t): read-out: AUC 0–7 (converted)
Description: In accordance with the ICH guidelines Q2 (R1) (2005) standard calibration curves, regression equations, and values for LOD and LOQ for each compound were validated with UV spectrophotometric method. Various parameters, such as linearity, precision, limit of detection, and limit of quantification, were considered for the method validation. […] The rats were orally administered (10, 20, and 40 mg/Kg body weight, n = 3) using a 20 G gavage needle. The animals were given a standard diet 4 h after the dosing, and blood samples were collected (approximately 400 μL) from each animal and placed into heparinized tubes before the dosing and at 0, 30, 60, 120, 180, 240, 300, 360, and 420 min after the dosing. Plasma (100 μL) was separated by centrifuging blood samples at 3600 rpm for 10 min at room temperature, followed by immediate processing for the analyses.
Plasma concentration by the compound was measured by UV spectrophotometry at 340 nm and validated per ICH requirements. […] The precision studies gave % RSD less than 2 for intra-day and inter-day variations, and recovery studies were between 97–99%, indicating the reliability of method.
The plasma concentration–time graph obtained after oral administrations were subjected to non-compartmental analyses based on the statistical moment theory, as shown in Figure 6 and Table 4. Pharmacokinetic parameters were calculated using WinNorlin 5.2 (Certara; available at www.certara.com, accessed on 20 November 2024). The parameters obtained include maximum plasma concentration (Cmax), the time to reach Cmax (Tmax), the elimination half-life (t1/2), the area under the plasma concentration–time curve from time zero to infinity (AUC0–∞), the area under the plasma concentration–time curve from time zero to 420 min AUC0–7, the mean residence time (MRT), and clearance (CL).

ACE enzyme = ACE enzyme (Homo sapiens, UniProt P12821); assay: ACE inhibition assay (absorbance at 340 nm)
Chain of ACE enzyme (P12821 30-1306, species assumed): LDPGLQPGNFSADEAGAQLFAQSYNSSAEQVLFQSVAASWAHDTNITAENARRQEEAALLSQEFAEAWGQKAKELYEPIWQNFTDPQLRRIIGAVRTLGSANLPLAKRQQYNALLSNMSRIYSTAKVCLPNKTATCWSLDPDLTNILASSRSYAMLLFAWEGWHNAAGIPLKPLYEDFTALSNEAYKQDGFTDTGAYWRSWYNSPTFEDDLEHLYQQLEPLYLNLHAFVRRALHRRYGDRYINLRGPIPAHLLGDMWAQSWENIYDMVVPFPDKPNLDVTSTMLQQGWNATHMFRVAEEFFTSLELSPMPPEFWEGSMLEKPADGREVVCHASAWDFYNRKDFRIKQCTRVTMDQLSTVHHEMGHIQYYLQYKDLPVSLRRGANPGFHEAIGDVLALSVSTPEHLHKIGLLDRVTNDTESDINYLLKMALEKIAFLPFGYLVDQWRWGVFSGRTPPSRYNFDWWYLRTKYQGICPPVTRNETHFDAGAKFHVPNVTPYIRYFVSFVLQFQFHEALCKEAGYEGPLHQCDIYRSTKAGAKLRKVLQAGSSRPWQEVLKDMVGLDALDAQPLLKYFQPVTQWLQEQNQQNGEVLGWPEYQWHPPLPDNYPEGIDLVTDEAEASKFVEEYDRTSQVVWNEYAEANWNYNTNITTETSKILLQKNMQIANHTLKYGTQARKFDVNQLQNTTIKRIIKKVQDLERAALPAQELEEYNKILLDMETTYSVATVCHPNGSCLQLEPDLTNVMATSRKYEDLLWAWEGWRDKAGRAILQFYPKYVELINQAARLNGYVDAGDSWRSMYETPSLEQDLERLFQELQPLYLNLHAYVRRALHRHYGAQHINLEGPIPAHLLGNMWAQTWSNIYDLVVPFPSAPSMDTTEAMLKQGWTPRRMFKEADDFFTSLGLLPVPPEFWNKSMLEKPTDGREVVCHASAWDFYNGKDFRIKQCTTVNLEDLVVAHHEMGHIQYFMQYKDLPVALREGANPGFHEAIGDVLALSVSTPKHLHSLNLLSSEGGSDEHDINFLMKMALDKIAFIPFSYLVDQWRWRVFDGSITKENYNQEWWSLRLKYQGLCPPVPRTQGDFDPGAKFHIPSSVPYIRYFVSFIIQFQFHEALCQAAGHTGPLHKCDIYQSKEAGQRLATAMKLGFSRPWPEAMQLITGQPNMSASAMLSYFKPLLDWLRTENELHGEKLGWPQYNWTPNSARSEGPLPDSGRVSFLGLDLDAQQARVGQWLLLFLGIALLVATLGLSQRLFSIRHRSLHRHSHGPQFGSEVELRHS
Description: The enzyme solution and substrate were prepared under standard protocols, and the assay was performed in 96-well plates wherein the ACE enzyme and inhibitor were mixed with the substrate. The reaction was incubated at 37 °C for 30 min, after which the ACE activity was determined by measuring the absorbance at 340 nm that correlated with the product formation and enzyme activity [36]. The IC₅₀ values that specify inhibition at 50% concentration were generated from concentration-inhibition data. The percentage inhibition was calculated using the formula:Percentage Inhibition (%) = (A − C)/ (A − B) ∗ 100 where A is the absorbance of the negative control (substrate and enzyme), B is the absorbance of the blank (buffer only) and C is the absorbance of the sample (enzyme, substrate and sample). For the positive control, captopril was used instead of a sample and was considered as C.

Q: For `COc1cc2oc(-c3ccc(O)cc3)c(OC3OC(CO)C(O)C(O)C3O)c(=O)c2c(O)c1OC` (stereo not shown), which “Diastolic BP” value ([1]; 10 mg/kg) is on record?
A: The value was 126.99 ± 6.80.

Q: And the “Heart Rate” value ([1]; 10 mg/kg)?
A: Its value is 443.99 ± 15.12 Beats/min.

Q: What about the MABP ([1]; 10 mg/kg) of the same compound?
A: Its MABP is 144.4 ± 4.59 mmHg.

Q: And the “Systolic BP” value ([1]; 10 mg/kg)?
A: The value was 179.19 ± 7.18.

Q: What about the “Diastolic BP” value ([1]; 20 mg/kg oral) of the same compound?
A: Its value is 110.88 ± 10.28.

Q: What about the “Heart Rate” value ([1]; 20 mg/kg oral) of the same compound?
A: The value was 430.66 ± 10.5 Beats/min.

Q: And the MABP ([1]; 20 mg/kg oral)?
A: Its MABP is 120.1 ± 5.1 mmHg.

Q: What about the “Systolic BP” value ([1]; 20 mg/kg oral) of the same compound?
A: The value was 138.44 ± 7.09.

Q: And the “Diastolic BP” value ([1]; 40 mg/kg oral)?
A: The value was 85.76 ± 7.4.

Q: What about the “Heart Rate” value ([1]; 40 mg/kg oral) of the same compound?
A: Its value is 408.99 ± 9.0 Beats/min.

Q: And the MABP ([1]; 40 mg/kg oral)?
A: The MABP was 95.53 ± 7.5 mmHg.

Q: And the “Systolic BP” value ([1]; 40 mg/kg oral)?
A: The value was 114.99 ± 5.8.

Q: And the “blood pressure in treated rats” value ([1]; 10, 20 and 40 mg/kg)?
A: The value was “dose-dependent decrease in blood pressure”.

Q: And the “systolic and diastolic blood pressures compared with vehicle” value ([1]; methyl predenisolone-induced hypertensive rats, p < 0.01)?
A: The value was “significantly lower”.

Q: And the Cmax ([2]; 10 mg/kg b.w. oral)?
A: The Cmax was 100 µg/mL.

Q: What about the MRT ([2]; 10 mg/kg b.w. oral) of the same compound?
A: Its MRT is 3.05 h.

Q: And the AUC(0-t) ([2]; 10 mg/kg b.w. oral)?
A: The AUC(0-t) was 438 µg·h/mL.

Q: And the Cmax ([2]; 20 mg/kg b.w. oral)?
A: The Cmax was 119 µg/mL.

Q: And the MRT ([2]; 20 mg/kg b.w. oral)?
A: Its MRT is 2.98 h.

Q: And the AUC(0-t) ([2]; 20 mg/kg b.w. oral)?
A: The AUC(0-t) was 499 µg·h/mL.

Q: And the Cmax ([2]; 40 mg/kg b.w. oral)?
A: Its Cmax is 125 µg/mL.

Q: And the MRT ([2]; 40 mg/kg b.w. oral)?
A: Its MRT is 3.04 h.

Q: And the AUC(0-t) ([2]; 40 mg/kg b.w. oral)?
A: The AUC(0-t) was 539 µg·h/mL.

Q: And the “Elimination Rate” value ([2]; 10 mg/kg b.w. oral)?
A: Its value is 0.0001236 h⁻¹.

Q: What about the “Elimination Rate” value ([2]; 20 mg/kg b.w. oral) of the same compound?
A: Its value is 0.0006846 h⁻¹.

Q: And the “Elimination Rate” value ([2]; 40 mg/kg b.w. oral)?
A: Its value is 0.0002917 h⁻¹.

Q: What about the bioavailability ([2]; oral) of the same compound?
A: Its bioavailability is “moderate”.

Q: What about the IC50 (ACE enzyme) of the same compound?
A: Its IC50 is roughly 20 µM.

Q: And the inhibition at 100 µM (ACE enzyme; read-out: maximum ACE inhibition)?
A: The inhibition at 100 µM was roughly 82%.

Q: Which “Diastolic BP” value ([1]; 5 mg/kg) does the source give for `C[C@H](CS)C(=O)N1CCC[C@H]1C(=O)O` [Captopril, captopril, reference compound] here?
A: Its value is 117.8 ± 11.19.

Q: And the “Heart Rate” value ([1]; 5 mg/kg)?
A: Its value is 507.11 ± 6.13 Beats/min.

Q: And the MABP ([1]; 5 mg/kg)?
A: Its MABP is 126.19 ± 11.10 mmHg.

Q: What about the “Systolic BP” value ([1]; 5 mg/kg) of the same compound?
A: Its value is 142.99 ± 10.88.

Q: And the “Diastolic BP” value ([1]; 10 mg/kg)?
A: The value was 98.66 ± 10.18.

Q: What about the “Heart Rate” value ([1]; 10 mg/kg) of the same compound?
A: The value was 421.78 ± 12.0 Beats/min.

Q: And the MABP ([1]; 10 mg/kg)?
A: Its MABP is 112.6 ± 5.17 mmHg.

Q: And the “Systolic BP” value ([1]; 10 mg/kg)?
A: Its value is 136.77 ± 6.13.
